PMC5667507, “A novel ^18F-labelled high affinity agent for PET imaging of the translocator protein” (Chemical Science, 2015)

Legend:
[1] = Baseline dynamic PET scan of healthy baboon brain; format: in vivo; details: whole brain, 240 min dynamic PET, i.v. bolus
Procedure: Following PET reconstruction and co-registration to an MRI (Fig. 7a), a time–activity curve for the tracer in the whole brain was established (Fig. 7b). […]
divided by the animal weight. A secondary spherical VOI was used to define the contralateral kinetics and the tumour to contralateral SUV ratio was calculated as a function of time. […]
were represented graphically using the GraphPad Prism 6 software (GraphPad Softare Inc).
14. Primate PET Methodology
A baboon (Papio anubis, 21.3 kg) was fasted for up to 12 h prior to imaging. […] Body temperature was maintained using a heated water blanket and monitored by rectal thermometer. Vital signs, including end tidal CO2, SpO2, heart rate, respiration rate and blood pressure, were monitored continuously and recorded at least every 15 min during the study. […]
generated and SUV determined as the concentration in the VOI divided by the injected dose divided […]
exception of the samples collected for metabolite analysis (3.5 mL each), all blood samples were 1 mL each. […] After blood collection, all samples were kept on ice until analysed.
Radioactivity in whole blood and plasma was assessed with a well-type γ-counter using a 400–1400 keV window (Perkin Elmer Wallac 2480, USA). […]

[2] = test system: TSPO; test: Dynamic PET scan of a mouse bearing an intracranial U87MG-Luc2 tumour; format: in vivo; details: single mouse, 120 min dynamic PET, early portion of the scan
Procedure: In order to investigate the potential of [^18F]-AB5186 6 as a PET tracer for TSPO a dynamic PET scan was performed using the Albira imaging system (Carestream Molecular Imaging, USA) in a single mouse bearing an intracranial U87MG-Luc2 tumour for 120 min after intravenous administration of the tracer. Postmortem histological examination of the brain collected at the end of the scan was conducted to visualise the anatomical location of the tumour. Following reconstruction, the entire dynamic PET image was manually co-registered to key anatomical structures of the CT (i.e. the spine, the front limbs and the eye sockets). […]
Fig. 6 Averaged PET images of a U87MG-Luc2 glioma bearing mouse brain following [^18F]-AB5186 injection: (a) 0–40 min averaged, (b) 41–80 min averaged, and (c) 81–120 min averaged; 120 min dynamic scan. […] (f) Tracer kinetics expressed as a ratio of the tumour to contralateral SUVs.
20 min the mice were sacrificed by CO2 asphyxiation, the brains were removed and frozen using a Cryospray (Cellpath). […] The film was developed following an overnight incubation at −20 ° C and scanned using a Bio-Rad GS-800 Calibrated Densitometer with the aid the Quantity One Basic (version 4.6.3) software. Quantification was performed using the ImageJ 1.47v software. […]

CCN(CC)C(=O)c1nc2ccccc2c(-c2ccccc2)c1C[18F] [[^18F]-AB5186 6]
peak standardised uptake value (SUV) in brain [1]: 1.67 | amount of tracer in tumour versus contralateral region (time-activity curve) [2]: greater amounts
